As a reminder, the IC50 is the point on the concentration scale where inhibition reaches its midpoint.

“And” between values parts separate entries of the source, which are not always exact repeats. Equal entries are not always repeated. Where two headings read alike, the source gives them in different places.

The values below come from patent US9636418B2 (priority 2013, dated 2017).

The target in test [1] is T1, hNav1.4 (Homo sapiens, UniProt P35499). In words: cell-based.
Test [2] has as its target T1, hNav1.4. In words: cell-based. The conditions noted are these: ratio of IonWorks Quattro IC50 values.

T1 sequence (P35499 whole entry): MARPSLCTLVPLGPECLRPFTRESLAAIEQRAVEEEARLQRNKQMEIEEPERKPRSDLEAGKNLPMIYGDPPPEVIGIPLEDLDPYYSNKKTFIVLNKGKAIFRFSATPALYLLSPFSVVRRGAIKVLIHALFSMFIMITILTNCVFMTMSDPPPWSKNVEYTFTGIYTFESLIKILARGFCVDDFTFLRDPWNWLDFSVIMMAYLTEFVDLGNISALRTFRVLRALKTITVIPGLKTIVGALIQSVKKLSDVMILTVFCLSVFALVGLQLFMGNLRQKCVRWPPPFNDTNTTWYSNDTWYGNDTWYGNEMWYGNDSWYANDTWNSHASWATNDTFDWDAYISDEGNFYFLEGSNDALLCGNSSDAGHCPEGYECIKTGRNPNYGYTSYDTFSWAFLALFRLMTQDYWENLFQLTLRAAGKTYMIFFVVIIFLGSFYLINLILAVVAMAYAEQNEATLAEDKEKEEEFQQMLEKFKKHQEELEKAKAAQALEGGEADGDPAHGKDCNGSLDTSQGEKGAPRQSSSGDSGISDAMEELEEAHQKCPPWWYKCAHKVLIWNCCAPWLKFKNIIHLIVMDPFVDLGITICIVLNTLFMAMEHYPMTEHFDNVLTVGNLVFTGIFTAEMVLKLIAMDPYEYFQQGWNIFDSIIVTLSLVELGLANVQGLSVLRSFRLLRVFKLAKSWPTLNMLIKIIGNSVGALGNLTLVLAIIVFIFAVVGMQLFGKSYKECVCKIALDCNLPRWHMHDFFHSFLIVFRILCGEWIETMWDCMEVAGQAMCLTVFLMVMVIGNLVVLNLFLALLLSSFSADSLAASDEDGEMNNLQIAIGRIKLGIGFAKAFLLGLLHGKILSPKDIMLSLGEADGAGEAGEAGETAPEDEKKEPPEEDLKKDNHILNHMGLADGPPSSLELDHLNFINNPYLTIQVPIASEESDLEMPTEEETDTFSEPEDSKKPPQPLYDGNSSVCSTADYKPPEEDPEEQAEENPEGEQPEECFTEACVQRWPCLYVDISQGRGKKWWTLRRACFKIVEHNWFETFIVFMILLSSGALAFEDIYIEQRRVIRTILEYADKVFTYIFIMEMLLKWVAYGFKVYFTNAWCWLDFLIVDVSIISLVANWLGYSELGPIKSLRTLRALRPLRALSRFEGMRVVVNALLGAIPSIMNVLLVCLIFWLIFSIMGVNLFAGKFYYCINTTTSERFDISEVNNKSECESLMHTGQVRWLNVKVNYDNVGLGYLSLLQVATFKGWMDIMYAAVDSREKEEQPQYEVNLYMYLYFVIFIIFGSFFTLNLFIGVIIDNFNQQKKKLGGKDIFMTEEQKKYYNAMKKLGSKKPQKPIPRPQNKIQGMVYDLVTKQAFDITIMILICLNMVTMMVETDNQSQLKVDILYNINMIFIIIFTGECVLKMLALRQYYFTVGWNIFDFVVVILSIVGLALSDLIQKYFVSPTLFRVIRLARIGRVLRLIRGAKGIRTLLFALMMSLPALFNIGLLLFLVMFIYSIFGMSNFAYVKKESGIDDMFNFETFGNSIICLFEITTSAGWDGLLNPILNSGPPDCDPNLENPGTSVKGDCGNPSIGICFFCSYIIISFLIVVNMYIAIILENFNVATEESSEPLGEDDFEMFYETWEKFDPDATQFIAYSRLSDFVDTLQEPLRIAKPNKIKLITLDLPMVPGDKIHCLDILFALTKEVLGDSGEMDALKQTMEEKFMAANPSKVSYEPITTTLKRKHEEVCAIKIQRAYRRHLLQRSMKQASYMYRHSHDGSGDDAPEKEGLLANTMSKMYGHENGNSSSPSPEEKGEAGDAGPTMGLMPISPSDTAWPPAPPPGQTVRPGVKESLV

Take `CC[C@H](C)[C@H](NC(=O)[C@@H](NC(=O)[C@H](CCCCN)NC(=O)[C@H](CCCNC(=N)N)NC(=O)[C@@H]1CSSC[C@@H]2NC(=O)[C@H](C)NC(=O)[C@H](CCCNC(=N)N)NC(=O)[C@H](CCCCN)NC(=O)[C@H](CO)NC(=O)[C@H](CC(=O)O)NC(=O)[C@@H]3CSSC[C@H](NC(=O)[C@H](CCC(=O)O)NC(=O)[C@H](CC(C)C)NC(=O)CNC(=O)[C@H](CCC(=O)O)NC(=O)[C@H](CSSC[C@H](NC(=O)[C@@H](N)Cc4ccc(O)cc4)C(=O)N[C@@H](CCC(N)=O)C(=O)N[C@@H](CCCCN)C(=O)N[C@@H](Cc4c[nH]c5ccccc45)C(=O)N[C@@H](CCSC)C(=O)N[C@@H](Cc4c[nH]c5ccccc45)C(=O)N[C@@H]([C@@H](C)O)C(=O)N3)NC2=O)C(=O)N[C@@H](CCCCN)C(=O)N[C@@H](CC(C)C)C(=O)N[C@@H](Cc2c[nH]c3ccccc23)C(=O)N1)[C@@H](C)CC)C(N)=O` [SEQ ID NO: 63, [Glu20]JzTx-V(1-29)]: the concentration for half-maximal inhibition (IC50) at hNav1.4 [1] (read-out: IC50 against hNav1.4 in the PX assay format) was found to be 1250 nM.
Turning to `CC[C@@H]1NC(=O)[C@H](CC(C)C)NC(=O)CNC(=O)[C@H](CCC(=O)O)NC(=O)[C@@H]2CSSC[C@H](NC(=O)[C@@H](N)Cc3ccc(O)cc3)C(=O)N[C@@H](CCC(N)=O)C(=O)N[C@@H](CCCCN)C(=O)N[C@@H](Cc3c[nH]c4ccccc34)C(=O)N[C@@H](CCSC)C(=O)N[C@@H](Cc3c[nH]c4ccccc34)C(=O)N[C@@H]([C@@H](C)O)C(=O)N[C@H]3CSSC[C@H](NC1=O)C(=O)N[C@@H](CCCCN)C(=O)N[C@@H](CC(C)C)C(=O)N[C@@H](Cc1c[nH]c4ccccc14)C(=O)N[C@H](C(=O)N[C@@H](CCCNC(=N)N)C(=O)N[C@@H](CCCCN)C(=O)N[C@H](C(=O)N[C@H](C(N)=O)[C@@H](C)CC)[C@@H](C)CC)CSSC[C@H](NC(=O)[C@H](C)NC(=O)[C@H](CCCNC(=N)N)NC(=O)[C@H](CCCCN)NC(=O)[C@H](CO)NC(=O)[C@H](CC(=O)O)NC3=O)C(=O)N2` [compound 117], the Nav1.4/Nav1.7 on hNav1.4 [2] is listed as 19.
Still for that read-out and setting: the figure for `CC[C@H](NC(=O)[C@H](CCCCN)NC(=O)[C@H](CCCNC(=N)N)NC(=O)[C@@H]1CSSC[C@@H]2NC(=O)[C@H](C)NC(=O)[C@H](CCCNC(=N)N)NC(=O)[C@H](CCCCN)NC(=O)[C@H](CO)NC(=O)[C@H](CC(=O)O)NC(=O)[C@@H]3CSSC[C@H](NC(=O)[C@H](CCC(=O)O)NC(=O)[C@H](CC(C)C)NC(=O)CNC(=O)[C@H](CCC(=O)O)NC(=O)[C@H](CSSC[C@H](NC(=O)[C@@H](N)Cc4ccc(O)cc4)C(=O)N[C@@H](CCC(N)=O)C(=O)N[C@@H](CCCCN)C(=O)N[C@@H](Cc4c[nH]c5ccccc45)C(=O)N[C@@H](CCSC)C(=O)N[C@@H](Cc4c[nH]c5ccccc45)C(=O)N[C@@H]([C@@H](C)O)C(=O)N3)NC2=O)C(=O)N[C@@H](CCCCN)C(=O)N[C@@H](CC(C)C)C(=O)N[C@@H](Cc2c[nH]c3ccccc23)C(=O)N1)C(=O)N[C@H](C(N)=O)[C@@H](C)CC` [compound 130] is 29 and 24.
For `CCCC[C@@H]1NC(=O)[C@H](Cc2c[nH]c3ccccc23)NC(=O)[C@H](CCCCN)NC(=O)[C@H](CCC(N)=O)NC(=O)[C@@H](NC(=O)[C@H](Cc2ccc(O)cc2)NC(=O)[C@@H](N)Cc2cn(CCCOCCOCCOCCOCCOCCOCCOCCOCCOCCOCCN)nn2)CSSC[C@@H]2NC(=O)[C@@H]3CSSC[C@@H](C(=O)N[C@@H](CCCNC(=N)N)C(=O)N[C@@H](CCCCN)C(=O)N[C@H](C(=O)N[C@H](C(N)=O)[C@@H](C)CC)[C@@H](C)CC)NC(=O)[C@H](Cc4c[nH]c5ccccc45)NC(=O)[C@H](CC(C)C)NC(=O)[C@H](CCCCN)NC(=O)[C@H](CSSC[C@H](NC(=O)[C@H]([C@@H](C)O)NC(=O)[C@H](Cc4c[nH]c5ccccc45)NC1=O)C(=O)N[C@@H](CC(=O)O)C(=O)N[C@@H](CO)C(=O)N[C@@H](CCCCN)C(=O)N[C@@H](CCCNC(=N)N)C(=O)N[C@@H](C)C(=O)N3)NC(=O)[C@H](CCCNC(=N)N)NC(=O)[C@H](CC(C)C)NC(=O)CNC(=O)[C@H](CCC(=O)O)NC2=O` [compound 247], the Nav1.4/Nav1.7 on hNav1.4 [2] came out at 2; at hNav1.4 [1] (ratio of PX IC50 values), 1.
On to `CCCC[C@@H]1NC(=O)[C@H](Cc2c[nH]c3ccccc23)NC(=O)[C@H](CCCCN)NC(=O)[C@H](CCC(N)=O)NC(=O)[C@@H](NC(=O)[C@@H](N)Cc2cn(CCCOCCOCCOCCOCCOCCOCCOCCOCCOCCOCCN)nn2)CSSC[C@@H]2NC(=O)[C@@H]3CSSC[C@@H](C(=O)N[C@@H](CCCNC(=N)N)C(=O)N[C@@H](CCCCN)C(=O)N[C@H](C(=O)N[C@H](C(N)=O)[C@@H](C)CC)[C@@H](C)CC)NC(=O)[C@H](Cc4c[nH]c5ccccc45)NC(=O)[C@H](CC(C)C)NC(=O)[C@H](CCCCN)NC(=O)[C@H](CSSC[C@H](NC(=O)[C@H]([C@@H](C)O)NC(=O)[C@H](Cc4c[nH]c5ccccc45)NC1=O)C(=O)N[C@@H](CC(=O)O)C(=O)N[C@@H](CO)C(=O)N[C@@H](CCCCN)C(=O)N[C@@H](CCCNC(=N)N)C(=O)N[C@@H](C)C(=O)N3)NC(=O)[C@H](CCCNC(=N)N)NC(=O)[C@H](CC(C)C)NC(=O)CNC(=O)[C@H](CCC(=O)O)NC2=O` [compound 248], for which the Nav1.4/Nav1.7 is 4 and 3 on hNav1.4 [2]; 15 on hNav1.4 [1] (ratio of PX IC50 values).
Regarding `CCCC[C@@H]1NC(=O)[C@H](Cc2c[nH]c3ccccc23)NC(=O)[C@H](CCCCN)NC(=O)[C@H](CCC(N)=O)NC(=O)[C@@H](NC(=O)[C@@H](N)Cc2ccc(O)cc2)CSSC[C@@H]2NC(=O)[C@@H]3CSSC[C@@H](C(=O)N[C@@H](CCCNC(=N)N)C(=O)N[C@@H](CCCCN)C(=O)N[C@H](C(=O)N[C@@H](Cc4cn(CCCOCCOCCOCCOCCOCCOCCOCCOCCOCCOCCN)nn4)C(N)=O)[C@@H](C)CC)NC(=O)[C@H](Cc4c[nH]c5ccccc45)NC(=O)[C@H](CC(C)C)NC(=O)[C@H](CCCCN)NC(=O)[C@H](CSSC[C@H](NC(=O)[C@H]([C@@H](C)O)NC(=O)[C@H](Cc4c[nH]c5ccccc45)NC1=O)C(=O)N[C@@H](CC(=O)O)C(=O)N[C@@H](CO)C(=O)N[C@@H](CCCCN)C(=O)N[C@@H](CCCNC(=N)N)C(=O)N[C@@H](C)C(=O)N3)NC(=O)[C@H](CCCNC(=N)N)NC(=O)[C@H](CC(C)C)NC(=O)CNC(=O)[C@H](CCC(=O)O)NC2=O` [compound 270], the Nav1.4/Nav1.7 on hNav1.4 [2] is recorded as 2.
With `C#CC[C@@H]1NC(=O)[C@@H]2CSSC[C@H](NC(=O)[C@H](Cc3ccc(O)cc3)NC(=O)[C@@H](N)CC#N)C(=O)N[C@@H](CCC(N)=O)C(=O)N[C@@H](CCCCN)C(=O)N[C@@H](Cc3c[nH]c4ccccc34)C(=O)N[C@@H](CCCC)C(=O)N[C@@H](Cc3c[nH]c4ccccc34)C(=O)N[C@@H]([C@@H](C)O)C(=O)N[C@H]3CSSC[C@H](NC(=O)[C@H](CCC(=O)O)NC(=O)[C@H](CC(C)C)NC(=O)CNC1=O)C(=O)N[C@@H](CCCCN)C(=O)N[C@@H](CC(C)C)C(=O)N[C@@H](Cc1c[nH]c4ccccc14)C(=O)N[C@H](C(=O)N[C@@H](CCCNC(=N)N)C(=O)N[C@@H](CCCCN)C(=O)N[C@H](C(=O)N[C@H](C(N)=O)[C@@H](C)CC)[C@@H](C)CC)CSSC[C@H](NC(=O)[C@H](C)NC(=O)[C@H](CCCNC(=N)N)NC(=O)[C@H](CCCCN)NC(=O)[C@H](CO)NC(=O)[C@H](CC(=O)O)NC3=O)C(=O)N2` [compound 396], the Nav1.4/Nav1.7 at hNav1.4 [1] (ratio of PX tonic IC50 values) was found to be 98.
On to `C#CC[C@H](N)C(=O)NCCCC[C@@H]1NC(=O)[C@H](CCCNC(=N)N)NC(=O)[C@H](CCCCN)NC(=O)[C@H](CO)NC(=O)[C@H](CC(=O)O)NC(=O)[C@@H]2CSSC[C@@H]3NC(=O)[C@H](CCCNC(=N)N)NC(=O)[C@H](CC(C)C)NC(=O)CNC(=O)[C@H](CCC(=O)O)NC(=O)[C@H](CSSC[C@H](NC(=O)[C@H](Cc4ccc(O)cc4)NC(=O)[C@@H](N)CCC)C(=O)N[C@@H](CCC(N)=O)C(=O)N[C@@H](CCCCN)C(=O)N[C@@H](Cc4c[nH]c5ccccc45)C(=O)N[C@@H](CCCC)C(=O)N[C@@H](Cc4c[nH]c5ccccc45)C(=O)N[C@@H]([C@@H](C)O)C(=O)N2)NC(=O)[C@H](CSSC[C@@H](C(=O)N[C@@H](CCCNC(=N)N)C(=O)N[C@@H](CCCCN)C(=O)N[C@H](C(=O)N[C@H](C(N)=O)[C@@H](C)CC)[C@@H](C)CC)NC(=O)[C@H](Cc2c[nH]c4ccccc24)NC(=O)[C@H](CC(C)C)NC(=O)[C@H](CCCCN)NC3=O)NC1=O` [compound 431], for which the concentration for half-maximal inhibition (IC50) on hNav1.4 [1] (PatchXpress, tonic block, read-out: PX hNav1.4 Tonic IC50) amounted to 20.5 nM. Also, the Nav1.4/Nav1.7 on hNav1.4 [1] (ratio of PX tonic IC50 values) is given as 13.
As for `CCC[C@H](N)C(=O)N[C@@H](Cc1ccc(O)cc1)C(=O)N[C@H]1CSSC[C@@H]2NC(=O)[C@@H]3CSSC[C@@H](C(=O)N[C@@H](CCCNC(=N)N)C(=O)N[C@@H](CCCCN)C(=O)N[C@H](C(=O)N[C@H](C(N)=O)[C@@H](C)CC)[C@@H](C)CC)NC(=O)[C@H](Cc4c[nH]c5ccccc45)NC(=O)[C@H](CC(C)C)NC(=O)[C@H](CCCCN)NC(=O)[C@H](CSSC[C@H](NC(=O)[C@H]([C@@H](C)O)NC(=O)[C@H](Cc4c[nH]c5ccccc45)NC(=O)[C@H](CC(C)C)NC(=O)[C@H](Cc4c[nH]c5ccccc45)NC(=O)[C@H](CCCCN)NC(=O)[C@H](CCC(N)=O)NC1=O)C(=O)N[C@@H](CC(=O)O)C(=O)N[C@@H](CO)C(=O)N[C@@H](CCCCN)C(=O)N[C@@H](CCCNC(=N)N)C(=O)N[C@@H](CCCCNC(=O)[C@@H](N)Cc1cn(CCOCCOCCOCCOCCOCCOCCOCCOCCOCCOCCN)nn1)C(=O)N3)NC(=O)[C@H](CCCNC(=N)N)NC(=O)[C@H](CC(C)C)NC(=O)CNC(=O)[C@H](CCC(=O)O)NC2=O` [compound 446], the Nav1.4/Nav1.7 on hNav1.4 [1] (ratio of PX IC50 values) amounted to 11.
